In US20080009418A1, “Selective Inhibitors” (Alchemia LTD., priority 2004, published 2008):

Tests used:
Details in all cases: compound at 10 μM
Mouse urotensin (mUR2) = molecular target: T1, Mouse urotensin (mUR2) (Mus musculus, UniProt Q8VIH9); assay: Radioligand binding, mouse urotensin mUR2 membranes, FlashPlate, [125I]-Urotensin II
T1 construct: purchased Perkin Elmer Biosignal
T1 sequence (Q8VIH9 1-385): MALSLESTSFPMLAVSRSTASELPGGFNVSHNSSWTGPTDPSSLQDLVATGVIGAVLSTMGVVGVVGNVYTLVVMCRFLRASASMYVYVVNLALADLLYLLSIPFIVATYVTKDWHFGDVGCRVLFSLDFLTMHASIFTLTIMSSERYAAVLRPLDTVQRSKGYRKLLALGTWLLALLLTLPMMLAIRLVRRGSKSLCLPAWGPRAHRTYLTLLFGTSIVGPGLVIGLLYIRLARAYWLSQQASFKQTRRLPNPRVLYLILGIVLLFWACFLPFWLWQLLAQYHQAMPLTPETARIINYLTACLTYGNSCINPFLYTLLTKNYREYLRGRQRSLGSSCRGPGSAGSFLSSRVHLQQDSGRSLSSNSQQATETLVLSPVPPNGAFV
Experimental: (§1) Cloned receptor membrane preparations from Perkin Elmer Biosignal™ were used in radioligand binding assays.
(§2) A1 Human δ-opioid (DOP), A2 Human κ-Opioid (KOP), A3 Human Melanocortin (MC3), A4 Human Melanocortin (MC4), A5 Human melanocortin (MC5), A6 Human melanin-concentrating hormone (MCH1), A7 Human μ-opioid (MOP), A8 Human neurokinin (NK1), A9 Human neuropeptide Y (NPY-Y1), A10 Human opioid (ORL1) A11 Mouse urotensin (mUR2)
(§3) Screening experiments were performed in either a 50 μl filtration or 25 μl FlashPlate assay format using the following protocol:
(§4) 19.5 μl buffer, 0.5 μl of compound diluted in DMSO, 5 μl of radioligand diluted in binding buffer.
(§5) The day prior to performing the experiment 50 μl DMSO was added to each well of the compound plates to yield compounds at a final concentration of 10 mM. Daughter plates were then created by diluting the compounds further in DMSO to a concentration of 0.5 mM. The mother plates were frozen immediately.
(§6) Immobilize membranes into FlashPlate microplates using PerkinElmer BioSignal's proprietary coating procedure. Dilute radioligand to 5× the final concentration in binding buffer. Add 19.5 μl buffer to each well of the FlashPlate. Add 0.5 μl of DMSO (total value, 5 wells), reference ligand (non-specific value, 3 wells) or compound to the corresponding wells in the FlashPlate microplate. Initiate the reaction by adding 5 μl of radioligand to each well. Apply TopSeal-A onto FlashPlate microplates. Incubate at room temperature for 1 hour in the dark. Count for 30 seconds per well on TopCount Microplate Scintillation and Luminescence Counter (PerkinElmer) using a count delay of 60 seconds.
(§7) Percentage inhibition was calculated using the following formula: [formula]

[1] = molecular target: T2, Human melanin-concentrating hormone (MCH1) (Homo sapiens, UniProt Q99705); assay: Radioligand binding, human melanin-concentrating hormone MCH1 membranes, FlashPlate, [125I]-S36057
T2 construct: purchased Perkin Elmer Biosignal
T2 sequence (Q99705 whole entry): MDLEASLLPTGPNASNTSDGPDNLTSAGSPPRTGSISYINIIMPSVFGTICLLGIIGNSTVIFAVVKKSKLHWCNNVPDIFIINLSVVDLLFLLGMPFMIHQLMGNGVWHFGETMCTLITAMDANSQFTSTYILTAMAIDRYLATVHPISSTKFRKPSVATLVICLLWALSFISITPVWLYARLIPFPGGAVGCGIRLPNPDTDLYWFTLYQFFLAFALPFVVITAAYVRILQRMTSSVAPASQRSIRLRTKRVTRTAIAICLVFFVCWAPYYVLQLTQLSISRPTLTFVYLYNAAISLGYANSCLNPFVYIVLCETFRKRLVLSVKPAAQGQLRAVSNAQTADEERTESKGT
Experimental: as §1, §2, §3, §4, §5, §6, §7

[2] = molecular target: T3, Human neuropeptide Y (NPY-Y1) (Homo sapiens, UniProt P25929); assay: Radioligand binding, human neuropeptide Y NPY-Y1 membranes, FlashPlate, [125I]-PYY
T3 construct: purchased Perkin Elmer Biosignal
T3 sequence (P25929 1-384): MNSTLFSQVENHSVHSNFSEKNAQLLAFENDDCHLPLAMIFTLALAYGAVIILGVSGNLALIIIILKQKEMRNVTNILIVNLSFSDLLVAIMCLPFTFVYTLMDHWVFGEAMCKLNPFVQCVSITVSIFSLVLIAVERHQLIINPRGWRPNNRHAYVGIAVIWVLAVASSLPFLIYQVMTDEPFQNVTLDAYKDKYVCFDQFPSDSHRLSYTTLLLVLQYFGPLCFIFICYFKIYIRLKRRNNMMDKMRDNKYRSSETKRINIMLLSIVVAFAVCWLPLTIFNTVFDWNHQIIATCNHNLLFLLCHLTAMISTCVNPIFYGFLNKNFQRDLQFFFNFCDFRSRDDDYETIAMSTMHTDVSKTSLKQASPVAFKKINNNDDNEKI
Experimental: as §1, §2, §3, §4, §5, §6, §7

Human opioid (ORL1) = molecular target: T4, Human opioid (ORL1) (Homo sapiens, UniProt P41146); assay: Radioligand binding, human opioid ORL1 membranes, FlashPlate, [125I]-Nociceptin
T4 construct: purchased Perkin Elmer Biosignal
T4 sequence (P41146 whole entry): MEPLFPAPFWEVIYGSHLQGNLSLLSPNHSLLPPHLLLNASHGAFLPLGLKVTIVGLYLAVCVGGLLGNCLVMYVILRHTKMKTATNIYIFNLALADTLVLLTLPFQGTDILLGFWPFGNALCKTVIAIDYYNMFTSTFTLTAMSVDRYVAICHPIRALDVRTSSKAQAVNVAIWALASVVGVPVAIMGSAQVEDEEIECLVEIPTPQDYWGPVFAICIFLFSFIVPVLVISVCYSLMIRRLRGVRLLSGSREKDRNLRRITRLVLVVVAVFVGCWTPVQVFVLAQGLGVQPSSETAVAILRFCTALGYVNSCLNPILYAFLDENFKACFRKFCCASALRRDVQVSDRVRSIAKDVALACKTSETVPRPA
Experimental: as §1, §2, §3, §4, §5, §6, §7

Human neurokinin (NK1) = molecular target: T5, Human neurokinin (NK1) (Homo sapiens, UniProt P25103); assay: Radioligand binding, human neurokinin NK1 membranes, filtration, [125I]-Substance P
T5 construct: purchased Perkin Elmer Biosignal
T5 sequence (P25103 whole entry): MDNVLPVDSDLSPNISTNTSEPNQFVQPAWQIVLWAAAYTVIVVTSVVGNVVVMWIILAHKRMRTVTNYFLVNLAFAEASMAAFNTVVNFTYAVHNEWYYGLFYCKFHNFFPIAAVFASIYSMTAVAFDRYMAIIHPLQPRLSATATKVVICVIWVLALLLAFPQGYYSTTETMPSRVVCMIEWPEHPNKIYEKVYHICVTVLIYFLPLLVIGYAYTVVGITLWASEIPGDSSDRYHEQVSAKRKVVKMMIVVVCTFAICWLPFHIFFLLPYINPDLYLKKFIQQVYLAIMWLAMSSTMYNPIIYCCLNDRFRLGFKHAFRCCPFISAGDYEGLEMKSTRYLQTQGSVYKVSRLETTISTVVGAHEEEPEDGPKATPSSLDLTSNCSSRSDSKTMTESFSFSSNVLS
Experimental: as §1, §2, §3
(§8) 44 μl membranes diluted in buffer, 1 μl of compound diluted in DMSO, 5 μl of radioligand diluted in binding buffer.
as §5
(§9) Thaw membranes on ice then dilute membranes in binding buffer at a concentration of 1 Unit per well. Dilute radio-ligand to 10 times the final concentration in binding buffer. Add 44 μl of diluted membranes to each well of the deep-well plate. Add 1 μl of DMSO (total value, 5 wells), reference ligand (non-specific value, 3 wells) or compound to the corresponding wells in the deep-well plate. Initiate the reaction by adding 5 μl of radioligand to each well and vortex gently. Incubate at room temperature for 1 hour. During incubation, pre-incubate the Multiscreen Harvest plates in 0.3% PEI. Filter over pre-soaked Multiscreen Harvest plates using a Tomtec Harvester. Wash 9 times with 500 μl of cold 50 mM Tris-HCl pH 7.4 at 4° C. and air-dry for 30 minutes at room temperature under a fume hood. Apply a bottom seal to the Multiscreen Harvest plates. Add 25 μl of MicroScint-0 to each well. Apply TopSeal-A to the plate. Count for 30 seconds per well on TopCount Microplate Scintillation and Luminescence Counter (PerkinElmer) using a count delay of 60 seconds.
as §7

Human Melanocortin (MC4) = molecular target: T6, Human Melanocortin (MC4) (Homo sapiens, UniProt P32245); assay: Radioligand binding, human melanocortin MC4 membranes, FlashPlate, [125I]-NDP-αMSH
T6 construct: purchased Perkin Elmer Biosignal
T6 sequence (P32245 whole entry): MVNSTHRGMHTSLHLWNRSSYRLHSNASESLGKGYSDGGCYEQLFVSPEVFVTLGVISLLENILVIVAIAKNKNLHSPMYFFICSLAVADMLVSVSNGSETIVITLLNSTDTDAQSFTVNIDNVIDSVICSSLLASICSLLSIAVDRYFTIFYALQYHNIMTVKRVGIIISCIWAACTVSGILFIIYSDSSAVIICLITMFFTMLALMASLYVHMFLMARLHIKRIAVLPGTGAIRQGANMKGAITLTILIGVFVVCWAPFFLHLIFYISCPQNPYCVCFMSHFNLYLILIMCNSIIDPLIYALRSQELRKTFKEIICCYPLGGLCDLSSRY
Experimental: as §1, §2, §3, §4, §5, §6, §7

Human Melanocortin (MC3) = molecular target: T7, Human Melanocortin (MC3) (Homo sapiens, UniProt P41968); assay: Radioligand binding, human melanocortin MC3 membranes, FlashPlate, [125I]-NDP-αMSH
T7 construct: purchased Perkin Elmer Biosignal
T7 sequence (P41968 whole entry): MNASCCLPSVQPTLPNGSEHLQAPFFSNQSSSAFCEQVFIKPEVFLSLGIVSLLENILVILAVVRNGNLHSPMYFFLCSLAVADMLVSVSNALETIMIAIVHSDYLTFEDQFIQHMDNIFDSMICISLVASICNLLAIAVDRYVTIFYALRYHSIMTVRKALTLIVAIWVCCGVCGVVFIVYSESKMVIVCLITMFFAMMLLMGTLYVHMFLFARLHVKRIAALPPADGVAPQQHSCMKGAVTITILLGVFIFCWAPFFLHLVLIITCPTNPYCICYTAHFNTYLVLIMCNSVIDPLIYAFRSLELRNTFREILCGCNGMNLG
Experimental: as §1, §2, §3, §4, §5, §6, §7

Human δ-opioid (DOP) = molecular target: T8, Human δ-opioid (DOP) (Homo sapiens, UniProt P41143); assay: Radioligand binding, human δ-opioid (DOP) membranes, FlashPlate, [3H]-Bremazocine
T8 construct: purchased Perkin Elmer Biosignal
T8 sequence (P41143 whole entry): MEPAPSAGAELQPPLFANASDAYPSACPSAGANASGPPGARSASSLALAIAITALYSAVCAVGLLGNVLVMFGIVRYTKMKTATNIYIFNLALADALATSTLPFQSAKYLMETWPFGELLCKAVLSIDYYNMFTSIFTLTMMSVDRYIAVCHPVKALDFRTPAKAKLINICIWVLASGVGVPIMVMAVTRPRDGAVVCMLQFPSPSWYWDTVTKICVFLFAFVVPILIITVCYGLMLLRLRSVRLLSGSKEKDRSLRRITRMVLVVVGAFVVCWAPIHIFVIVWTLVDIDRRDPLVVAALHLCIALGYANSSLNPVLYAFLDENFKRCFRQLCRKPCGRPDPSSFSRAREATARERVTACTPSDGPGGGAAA
Experimental: as §1, §2, §3, §4, §5, §6, §7

Human μ-opioid (MOP) = molecular target: T9, Human μ-opioid (MOP) (Homo sapiens, UniProt P35372); assay: Radioligand binding, human μ-opioid (MOP) membranes, FlashPlate, [3H]-Naloxone
T9 construct: purchased Perkin Elmer Biosignal
T9 sequence (P35372 whole entry): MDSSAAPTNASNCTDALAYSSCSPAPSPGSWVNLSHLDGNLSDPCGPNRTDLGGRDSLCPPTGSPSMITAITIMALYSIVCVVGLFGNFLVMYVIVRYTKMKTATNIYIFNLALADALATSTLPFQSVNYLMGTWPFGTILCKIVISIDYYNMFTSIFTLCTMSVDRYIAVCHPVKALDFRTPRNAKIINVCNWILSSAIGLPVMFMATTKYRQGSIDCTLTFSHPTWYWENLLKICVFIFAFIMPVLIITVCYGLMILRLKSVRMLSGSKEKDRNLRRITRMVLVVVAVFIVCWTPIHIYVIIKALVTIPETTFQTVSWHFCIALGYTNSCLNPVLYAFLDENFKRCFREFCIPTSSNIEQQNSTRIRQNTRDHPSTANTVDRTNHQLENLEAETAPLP
Experimental: as §1, §2, §3, §4, §5, §6, §7

Human melanocortin (MC5) = molecular target: T10, Human melanocortin (MC5) (Homo sapiens, UniProt P33032); assay: Radioligand binding, human melanocortin MC5 membranes, FlashPlate, [125I]-NDP-αMSH
T10 construct: purchased Perkin Elmer Biosignal
T10 sequence (P33032 whole entry): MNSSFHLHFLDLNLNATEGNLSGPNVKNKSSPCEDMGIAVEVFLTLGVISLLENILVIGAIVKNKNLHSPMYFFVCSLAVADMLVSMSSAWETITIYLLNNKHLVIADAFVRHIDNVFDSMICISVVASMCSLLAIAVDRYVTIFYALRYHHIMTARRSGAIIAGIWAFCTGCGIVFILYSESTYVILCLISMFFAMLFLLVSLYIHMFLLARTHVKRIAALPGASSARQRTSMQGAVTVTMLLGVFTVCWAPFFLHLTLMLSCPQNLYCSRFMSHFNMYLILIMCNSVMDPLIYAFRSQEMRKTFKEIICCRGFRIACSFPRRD
Experimental: as §1, §2, §3, §4, §5, §6, §7

Human κ-Opioid (KOP) = molecular target: T11, Human κ-Opioid (KOP) (Homo sapiens, UniProt P41145); assay: Radioligand binding, human κ-opioid (KOP) membranes, filtration, [3H]-Diprenorphine
T11 construct: purchased Perkin Elmer Biosignal
T11 sequence (P41145 whole entry): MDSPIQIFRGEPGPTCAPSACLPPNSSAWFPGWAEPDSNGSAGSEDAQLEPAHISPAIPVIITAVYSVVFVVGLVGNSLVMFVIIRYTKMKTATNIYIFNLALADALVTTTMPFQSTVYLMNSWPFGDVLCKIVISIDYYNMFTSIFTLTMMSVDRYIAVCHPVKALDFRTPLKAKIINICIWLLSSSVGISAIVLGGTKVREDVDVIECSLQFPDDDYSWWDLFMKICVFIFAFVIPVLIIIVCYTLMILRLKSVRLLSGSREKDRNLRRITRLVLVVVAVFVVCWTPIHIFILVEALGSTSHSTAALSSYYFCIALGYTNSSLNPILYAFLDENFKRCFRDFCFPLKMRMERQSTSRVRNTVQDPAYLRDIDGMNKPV
Experimental: as §1, §2, §3, §8, §5, §9, §7

With `NCCCC(=O)NC1C(OCc2ccc(Cl)cc2)OC(COCc2ccccc2)C(O)C1OCc1ccc(Cl)cc1` (single isomer, unassigned) [compound 491] as the compound, how does the “A11: inhibition of radioligand binding, mouse urotensin (mUR2)” value (Mouse urotensin (mUR2); [125I]-Urotensin II) read?
The value was “− (“−” indicates less than 50% inhibition at 10 μM)”.

And the “A6: inhibition of radioligand binding, human melanin-concentrating hormone (MCH1)” value ([1]; [125I]-S36057, 10 µM)?
The value was “− (“−” indicates less than 50% inhibition at 10 μM)”.

And the “A9: inhibition of radioligand binding, human neuropeptide Y (NPY-Y1)” value ([2]; [125I]-PYY)?
Its value is “− (“−” indicates less than 50% inhibition at 10 μM)”.

And the “A10: inhibition of radioligand binding, human opioid (ORL1)” value (Human opioid (ORL1); [125I]-Nociceptin)?
The value was “+ (“+” indicates greater than 50% inhibition at 10 μM)”.

And the “A8: inhibition of radioligand binding, human neurokinin (NK1)” value (Human neurokinin (NK1); [125I]-Substance P)?
The value was “+ (“+” indicates greater than 50% inhibition at 10 μM)”.

What about the “A4: inhibition of radioligand binding, human melanocortin (MC4)” value (Human Melanocortin (MC4); [125I]-NDP-αMSH, 10 µM) of the same compound?
The value was “− (“−” indicates less than 50% inhibition at 10 μM)”.

And the “A3: inhibition of radioligand binding, human melanocortin (MC3)” value (Human Melanocortin (MC3); [125I]-NDP-αMSH)?
The value was “− (“−” indicates less than 50% inhibition at 10 μM)”.

What about the “A1: inhibition of radioligand binding, human δ-opioid (DOP)” value (Human δ-opioid (DOP); [3H]-Bremazocine) of the same compound?
The value was “− (“−” indicates less than 50% inhibition at 10 μM)”.

And the “A7: inhibition of radioligand binding, human μ-opioid (MOP)” value (Human μ-opioid (MOP); [3H]-Naloxone)?
Its value is “− (“−” indicates less than 50% inhibition at 10 μM)”.

And the “A5: inhibition of radioligand binding, human melanocortin (MC5)” value (Human melanocortin (MC5); [125I]-NDP-αMSH, 10 µM)?
Its value is “− (“−” indicates less than 50% inhibition at 10 μM)”.

What about the “A2: inhibition of radioligand binding, human κ-opioid (KOP)” value (Human κ-Opioid (KOP); [3H]-Diprenorphine) of the same compound?
The value was “− (“−” indicates less than 50% inhibition at 10 μM)”.

Which results are given for `CO[C@H]1[C@H](O)[C@@H](COCc2ccc(Cl)cc2)OC(OCc2ccc3ccccc3c2)[C@@H]1NC(=O)CCCNC(=N)N` (stereo partly shown) [compound 81]?
A11 radioligand binding inhibition (Mouse urotensin (mUR2); mouse urotensin mUR2 membranes): − (“−” indicates less than 50% inhibition at 10 μM); A6 radioligand binding inhibition ([1]; human MCH1 membranes): − (“−” indicates less than 50% inhibition at 10 μM); A9 radioligand binding inhibition ([2]; human NPY-Y1 membranes): − (“−” indicates less than 50% inhibition at 10 μM); A10 radioligand binding inhibition (Human opioid (ORL1); human ORL1 membranes): − (“−” indicates less than 50% inhibition at 10 μM); A8 radioligand binding inhibition (Human neurokinin (NK1); human neurokinin NK1 membranes): + (“+” indicates greater than 50% inhibition at 10 μM); A4 radioligand binding inhibition (Human Melanocortin (MC4); human melanocortin MC4 membranes): + (“+” indicates greater than 50% inhibition at 10 μM); A3 radioligand binding inhibition (Human Melanocortin (MC3); human melanocortin MC3 membranes): + (“+” indicates greater than 50% inhibition at 10 μM); A1 radioligand binding inhibition (Human δ-opioid (DOP); human δ-opioid (DOP) membranes): − (“−” indicates less than 50% inhibition at 10 μM); A7 radioligand binding inhibition (Human μ-opioid (MOP); human μ-opioid (MOP) membranes): + (“+” indicates greater than 50% inhibition at 10 μM); A5 radioligand binding inhibition (Human melanocortin (MC5); human melanocortin MC5 membranes): + (“+” indicates greater than 50% inhibition at 10 μM); A2 radioligand binding inhibition (Human κ-Opioid (KOP); human κ-opioid (KOP) membranes): + (“+” indicates greater than 50% inhibition at 10 μM)
